# Results from US20070042339A1, “Preservation of biomaterials with transported preservation agents” (priority 2003, published 2007).
# Like-named read-outs stand apart in the source and are kept apart here.
# Assays:
# [1] = tested on: murine B lymphocytes, murine fibroblasts, and rat primary hepatocytes; test: Cryopreservation with non-metabolizable glucose compounds, post-thaw trypan blue viability (Example 1); assay type: cell-based; settings: 0.2 M loading 60 min
# Experimental: At first, these compounds were tested on cryopreservation, which is most common protocol for preservation of biomaterials. Glucose compounds are thought to prevent damaging effects of protein and lipid-membranes during storage. In addition, glucose compounds have a high glass transition temperature and cause the formation of stable glasses during storage. Cells were incubated with glucose-free DMEM or glucose-free DMEM with 0.2 M 2DG, or 0.2 M 3OMG for 60 min at 37° C. […] Samples were stored for up to 14 days. Following storage, samples were rapidly thawed in 37° C. H2O for 80 sec with gentle agitation. […] Samples were then centrifuged, supernatant decanted, and cells were resuspended in culture medium.
# [2] = tested on: lymphocytes, fibroblasts and hepatocytes; test: MTT assay of metabolic activity after glucose loading (Example 1); assay type: cell-based, murine; rat; settings: 1 hr at 37° C.
# Experimental: However, it was considered to be possible that high accumulation of glucose compounds change metabolic activity of the cells. Therefore, metabolic activity after sugar loading was measured with the MTT assay. MTT assay is a colorimetric assay based on the activity of mitochondrial dehydrogenase activity. […] Cells were seeded on 96-well culture plates with 100 μL defined medium supplemented with various glucose compounds according to the experimental design for 1 hr at 37° C. At the end of the treatment period, 10 μL of MT solution (5 mg/mL) were added and incubated for 2 hrs at 37° C. At this time, 100 μL of detergent solution were added to the wells and after 24 hrs of incubation at 25° C., and the absorption value at 570 nm was measured in a microtiter reader.
# hepatocytes [3] = assay type: cell-based; settings: rat, 60 min, 200 mM
# Experimental: HTS without sugar supplement was used for control samples. […] Following storage, samples were rapidly thawed in 37° C. H2O for 2 min with gentle agitation.
# hepatocytes [4] = assay type: cell-based, rat
# From the text: The sandwich culture is a long-term culture technique that results in stable and differentiated hepatocytes. We evaluated albumin synthesis, urea production, and cytochrome P450 (CYP) activity of frozen-thawed hepatocytes as markers of synthetic, metabolic, and detoxification abilities of hepatocytes. Albumin production of 3OMG-loaded and cryopreserved hepatocytes stabilized following 7 days in culture (FIG. 11A). Daily average of albumin production (day 7-13) from 3OMG-loaded hepatocytes was approximately 60% of non-frozen control (1.29±0.19 μg and 2.14±0.26 μg, respectively) with statistically significant difference (p=0.014). […] The CYP activity was measured on day 3 and 7 after thawing.
# [5] = tested on: lymphocytes, fibroblasts and hepatocytes; assay type: cell-based, murine; rat
# Experimental: The conventional permeable cryoprotectants such as DMSO and glycerol benefit cells for preservation, but they are known to be toxic to the cells at the same time. […] The toxicity of various glucose compounds, D-glucose and DMSO was examined after loading. Cells were incubated with glucose-free DMEM supplemented with 0.2 M 3OMG, with 0.2 M 2DG or 1.4 M DMSO for 60 min at 37° C. After loading, calcein and ethidium homodimer were added to cell suspensions to assess viability. Cells were run through Beckton-Dickinson FACSCalibur flowcytometer to take emission reading at 530 nm and 630 nm of 5000 particles. High green and low red fluorescence (calcein positive) were scored as live, whereas high red and low green (ethidium positive) were scored dead.
structure (smiles),measurement,setting,value
"OC[C@H]1OC(O)C[C@@H](O)[C@@H]1O (mixture of isomers) [2DG, 2-deoxy-D-glucose]",viability after cryopreservation compared to non-glucose control,[1],significantly high viability
same,"metabolic activity (MTT) after loading, lymphocytes and fibroblasts",[2]; lymphocytes and fibroblasts,significant loss of metabolic activity
same,"metabolic activity (MTT) after loading, hepatocytes",[2]; primary isolated hepatocytes,not down-regulated
same,"post-thaw viability, percent of non-frozen samples",hepatocytes [3],15%
O=C[C@H](O)[C@@H](O)[C@H](O)[C@H](O)CO [D-glucose],"hepatospecific functions (albumin, urea, CYP) in long-term culture after cryopreservation",hepatocytes [4],completely lost these functions in 5 days
same,"post-thaw viability, percent of non-frozen samples",hepatocytes [3],< 10%
"C[S+](C)[O-] [DMSO, dimethylsulfoxide]",toxicity to the cells (percentage of dead cells after incubation),[5],significant toxicity
OC[C@H]1O[C@@](CO)(O[C@H]2O[C@H](CO)[C@@H](O)[C@H](O)[C@H]2O)[C@@H](O)[C@@H]1O [sucrose],"hepatospecific functions (albumin, urea, CYP) in long-term culture after cryopreservation","hepatocytes [4]; collagen sandwich culture, 14 days",completely lost these functions in 5 days
